Experiment [1] addresses T1, Dual specificity tyrosine-phosphorylation-regulated kinase 2 (Homo sapiens) (UniProt Q92630).
T1 sequence (whole entry): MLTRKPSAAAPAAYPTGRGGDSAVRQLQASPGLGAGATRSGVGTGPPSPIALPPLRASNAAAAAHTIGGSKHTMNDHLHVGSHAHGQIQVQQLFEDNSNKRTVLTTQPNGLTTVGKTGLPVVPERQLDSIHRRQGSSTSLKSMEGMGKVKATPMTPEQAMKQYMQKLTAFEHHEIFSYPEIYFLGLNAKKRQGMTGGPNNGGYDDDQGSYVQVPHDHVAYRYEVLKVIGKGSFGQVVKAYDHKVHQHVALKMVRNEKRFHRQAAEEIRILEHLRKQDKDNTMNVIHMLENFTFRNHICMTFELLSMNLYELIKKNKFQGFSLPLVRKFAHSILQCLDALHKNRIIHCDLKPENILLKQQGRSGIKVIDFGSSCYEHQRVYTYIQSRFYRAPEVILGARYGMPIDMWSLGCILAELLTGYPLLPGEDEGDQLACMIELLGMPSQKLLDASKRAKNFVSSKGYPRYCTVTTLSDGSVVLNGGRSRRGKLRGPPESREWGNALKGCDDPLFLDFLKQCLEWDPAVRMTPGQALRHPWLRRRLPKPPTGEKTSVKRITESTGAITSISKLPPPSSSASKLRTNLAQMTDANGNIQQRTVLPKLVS
The experiment can be described thus: Selectivity interaction (Kinase panel (DSF assay)) EUB0001558a DYRK2. For orientation: In DSF a fluorescence change marks the thermal transition of the protein.

Experiment [2] deals with T2, Serine/threonine-protein kinase DCLK1 (Homo sapiens) (UniProt O15075).
T2 sequence (whole entry): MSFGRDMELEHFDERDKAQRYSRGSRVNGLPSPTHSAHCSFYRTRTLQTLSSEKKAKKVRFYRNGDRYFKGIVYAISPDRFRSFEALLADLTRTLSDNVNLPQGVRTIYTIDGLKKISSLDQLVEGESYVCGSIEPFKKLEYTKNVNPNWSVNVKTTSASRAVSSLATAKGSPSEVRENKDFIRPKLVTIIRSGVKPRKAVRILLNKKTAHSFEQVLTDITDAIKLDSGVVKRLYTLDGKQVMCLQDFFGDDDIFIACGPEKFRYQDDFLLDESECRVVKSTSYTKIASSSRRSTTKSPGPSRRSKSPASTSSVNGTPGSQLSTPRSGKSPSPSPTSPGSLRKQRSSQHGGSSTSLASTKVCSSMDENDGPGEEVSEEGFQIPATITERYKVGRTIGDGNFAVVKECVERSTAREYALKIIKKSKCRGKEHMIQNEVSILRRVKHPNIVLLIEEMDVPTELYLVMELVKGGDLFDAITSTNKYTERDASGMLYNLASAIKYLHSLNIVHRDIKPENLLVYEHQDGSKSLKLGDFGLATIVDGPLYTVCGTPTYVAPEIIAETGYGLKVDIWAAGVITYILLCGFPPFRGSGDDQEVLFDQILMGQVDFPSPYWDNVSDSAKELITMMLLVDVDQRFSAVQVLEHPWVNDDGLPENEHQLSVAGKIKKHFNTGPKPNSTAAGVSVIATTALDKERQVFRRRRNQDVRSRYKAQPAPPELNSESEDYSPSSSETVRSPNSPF
The experiment can be described thus: Selectivity interaction (KinomeScan (DiscoverX)) EUB0001619a DCLK1. The settings on record: at 1 µM.

For experiment [3], the target named is T3, Receptor-interacting serine/threonine-protein kinase 1 (Homo sapiens) (UniProt Q13546).
T3 sequence (whole entry): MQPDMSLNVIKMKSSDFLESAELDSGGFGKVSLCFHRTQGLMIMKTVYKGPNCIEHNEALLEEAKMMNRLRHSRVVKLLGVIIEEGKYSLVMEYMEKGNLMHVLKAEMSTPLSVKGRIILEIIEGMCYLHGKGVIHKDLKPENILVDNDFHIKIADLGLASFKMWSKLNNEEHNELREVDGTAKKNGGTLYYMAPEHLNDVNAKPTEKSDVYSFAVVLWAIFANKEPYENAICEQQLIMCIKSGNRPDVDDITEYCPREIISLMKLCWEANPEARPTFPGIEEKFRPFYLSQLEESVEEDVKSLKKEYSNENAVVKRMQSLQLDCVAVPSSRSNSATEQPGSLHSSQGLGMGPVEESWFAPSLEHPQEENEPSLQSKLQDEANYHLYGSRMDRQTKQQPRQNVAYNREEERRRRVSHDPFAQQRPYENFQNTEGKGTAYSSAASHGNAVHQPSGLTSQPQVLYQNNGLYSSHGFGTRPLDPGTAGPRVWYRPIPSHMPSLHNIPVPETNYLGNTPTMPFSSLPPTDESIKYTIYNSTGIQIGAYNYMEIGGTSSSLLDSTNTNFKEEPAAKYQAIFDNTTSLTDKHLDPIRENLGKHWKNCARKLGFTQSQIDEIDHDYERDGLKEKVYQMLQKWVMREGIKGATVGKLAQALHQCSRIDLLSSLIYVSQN
Kind of experiment: Selectivity interaction (KinomeScan (DiscoverX)) EUB0000092b RIPK1. As to conditions: at 10 µM.

Experiment [4] has as its target Mitogen-activated protein kinase 1 (Homo sapiens, UniProt P28482). Kind of experiment: Selectivity interaction (Kinase panel (DSF assay)) EUB0001559a MAPK1.
For experiment [5], the target named is T4, Uncharacterized serine/threonine-protein kinase SBK3 (Homo sapiens) (UniProt P0C264).
T4 sequence (whole entry): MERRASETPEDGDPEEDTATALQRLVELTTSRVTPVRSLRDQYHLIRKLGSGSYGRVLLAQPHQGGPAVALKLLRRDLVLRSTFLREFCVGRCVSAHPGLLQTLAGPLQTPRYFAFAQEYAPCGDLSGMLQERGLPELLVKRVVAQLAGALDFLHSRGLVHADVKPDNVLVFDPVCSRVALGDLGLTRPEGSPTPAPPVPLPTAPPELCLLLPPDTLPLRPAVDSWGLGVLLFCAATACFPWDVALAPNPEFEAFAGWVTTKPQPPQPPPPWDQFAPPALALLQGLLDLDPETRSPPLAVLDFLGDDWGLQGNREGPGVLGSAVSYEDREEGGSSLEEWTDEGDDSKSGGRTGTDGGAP
Kind of experiment: Selectivity interaction (KinomeScan (DiscoverX)) EUB0000595a SBK3. The settings on record: at 10 µM.

The values below come from ChEMBL document CHEMBL5465560, “Selectivity Literature for EUbOPEN Chemogenomic Library” (2024).

Chain of Mitogen-activated protein kinase 1 (P28482 whole entry): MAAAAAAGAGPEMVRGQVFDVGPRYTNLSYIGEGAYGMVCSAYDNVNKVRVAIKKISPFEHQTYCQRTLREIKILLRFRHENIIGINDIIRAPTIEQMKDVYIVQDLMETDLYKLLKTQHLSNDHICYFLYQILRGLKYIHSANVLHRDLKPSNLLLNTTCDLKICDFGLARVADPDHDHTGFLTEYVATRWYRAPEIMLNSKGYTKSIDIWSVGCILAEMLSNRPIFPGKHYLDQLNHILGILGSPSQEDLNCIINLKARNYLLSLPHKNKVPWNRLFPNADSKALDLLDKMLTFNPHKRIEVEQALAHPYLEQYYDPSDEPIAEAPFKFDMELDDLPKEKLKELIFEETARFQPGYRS

On to `CC(C)(O)[C@H](F)CN1Cc2cc(NC(=O)c3cnn4cccnc34)c(N3CCOCC3)cc2C1=O`, for which the dTM in experiment [1] came out at 5 K. For the compound `N#Cc1cccc(-c2c[nH]c3ncnc(N4CCOCC4)c23)c1`, in experiment [2], the % of control is 100%. In experiment [3], `CCC(=O)N1CCN(c2ccc(-n3c(=O)ccc4cnc5ccc(-c6cnc7ccccc7c6)cc5c43)cc2C(F)(F)F)CC1` showed a % of control of 1.9%. In turn, `CN(C(=O)c1cnn2cccnc12)c1cc2c(cc1N1CCOCC1)C(=O)N(C[C@@H](F)C(C)(C)O)C2` yielded a dTM in experiment [4] of -1 K. For `COCC(=O)NC/C=C/c1ccc2ncnc(Nc3ccc(Oc4ccc(C)nc4)c(C)c3)c2c1` [CP-724714], the % of control in experiment [5] came out at 100%.
